# Data as given in patent publication US10597388B2, “Pyridazinone herbicides” (FMC CORPORATION, priority 2014, dated 2020).
# Legend:
# Test in all cases: Test E greenhouse herbicide test, pre- and postemergence
# Assay type in all cases: in vivo
# [1] = tested on: velvetleaf (Abutilon theophrasti); details: Preemergence
# How it was run: (§1)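 Seedlings reaching 2–18 cm (1- to 4-leaf stage) received foliar treatment, while seeds in silt loam received a soil surface spray; the vehicle in each case was a non-phytotoxic solvent mixture including surfactant. Visual scoring versus controls followed 14–21 d later on a 0–100 scale.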
# [2] = tested on: pigweed, palmer (palmer pigweed, Amaranthus palmeri)
# How it was run: as §1
# [3] = tested on: surinam grass (Brachiaria decumbens); details: Preemergence
# How it was run: as §1
# [4] = tested on: johnsongrass (Sorghum halepense); details: Preemergence
# How it was run: as §1
# [5] = tested on: waterhemp (common waterhemp, Amaranthus rudis)
# How it was run: as §1
# [6] = tested on: beggarticks (hairy beggarticks, Bidens pilosa)
# How it was run: as §1
# [7] = tested on: crabgrass, large (large crabgrass, Digitaria sanguinalis); details: Preemergence
# How it was run: as §1
# [8] = tested on: lambsquarters (Chenopodium album); details: Preemergence
# How it was run: as §1
# [9] = tested on: nightshade (eastern black nightshade, Solanum ptycanthum); details: Preemergence
# How it was run: as §1
# kochia (Kochia scoparia) = tested on: kochia (Kochia scoparia)
# How it was run: as §1
# [10] = tested on: field bindweed (Convolvulus arvensis)
# How it was run: as §1
# [11] = tested on: foxtail, giant (giant foxtail, Setaria faberii); details: Preemergence
# How it was run: as §1
# [12] = 62 g ai/ha, scale 0 to 100 (0 no effect, 100 complete control)
# [13] = 125 g ai/ha, scale 0 to 100 (0 no effect, 100 complete control)
# [14] = 16 g ai/ha, scale 0 to 100, 0 no effect, 100 complete control
# [15] = 31 g ai/ha, scale 0 to 100, 0 no effect, 100 complete control
# [16] = 62 g ai/ha, Postemergence, scale 0 to 100 (0 no effect, 100 complete control)
# [17] = 62 g ai/ha, Preemergence, scale 0 to 100 (0 no effect, 100 complete control)
# [18] = 125 g ai/ha, Postemergence, scale 0 to 100 (0 no effect, 100 complete control)
# [19] = 125 g ai/ha, Preemergence, scale 0 to 100 (0 no effect, 100 complete control)
# [20] = Postemergence, 16 g ai/ha, visual, scale 0 no effect to 100 complete control
# [21] = Postemergence, 31 g ai/ha, visual, scale 0 no effect to 100 complete control
# [22] = Preemergence, 16 g ai/ha, scale 0 to 100, 0 no effect, 100 complete control
# [23] = Preemergence, 31 g ai/ha, scale 0 to 100, 0 no effect, 100 complete control
compound,measurement,setting,value
CCCC(=O)Oc1c(C)nn(C)c(=O)c1-c1c(C)sc2ccc(C)cc12 [Compound 105],"Plant response rating, Velvetleaf",[1]; [12],70
same,"Plant response rating, Velvetleaf",[1]; [13],95
same,"Plant response rating, Velvetleaf",[1]; [14],0
same,"Plant response rating, Velvetleaf",[1]; [15],50
same,"Plant response rating, Pigweed, Palmer",[2]; [16],70
same,"Plant response rating, Pigweed, Palmer",[2]; [17],98
same,"Plant response rating, Pigweed, Palmer",[2]; [18],70
same,"Plant response rating, Pigweed, Palmer",[2]; [19],90
same,"Plant response rating, Pigweed, Palmer",[2]; [20],75
same,"Plant response rating, Pigweed, Palmer",[2]; [21],70
same,"Plant response rating, Pigweed, Palmer",[2]; [22],0
same,"Plant response rating, Pigweed, Palmer",[2]; [23],0
same,"Plant response rating, Surinam Grass",[3]; [12],10
same,"Plant response rating, Surinam Grass",[3]; [13],70
same,"Plant response rating, Surinam Grass",[3]; [14],0
same,"Plant response rating, Surinam Grass",[3]; [15],0
same,"Plant response rating, Johnsongrass",[4]; [12],20
same,"Plant response rating, Johnsongrass",[4]; [13],20
same,"Plant response rating, Johnsongrass",[4]; [14],0
same,"Plant response rating, Johnsongrass",[4]; [15],0
same,"Plant response rating, Waterhemp",[5]; [17],90
same,"Plant response rating, Waterhemp",[5]; [18],90
same,"Plant response rating, Waterhemp",[5]; [19],100
same,"Plant response rating, Waterhemp",[5]; [20],60
same,"Plant response rating, Waterhemp",[5]; [21],70
same,"Plant response rating, Waterhemp",[5]; [22],70
same,"Plant response rating, Waterhemp",[5]; [23],80
same,"Plant response rating, Beggarticks",[6]; [16],100
same,"Plant response rating, Beggarticks",[6]; [17],100
same,"Plant response rating, Beggarticks",[6]; [18],100
same,"Plant response rating, Beggarticks",[6]; [19],100
same,"Plant response rating, Beggarticks",[6]; [20],80
same,"Plant response rating, Beggarticks",[6]; [21],90
same,"Plant response rating, Beggarticks",[6]; [22],90
same,"Plant response rating, Beggarticks",[6]; [23],80
same,"Plant response rating, Crabgrass, Large",[7]; [12],50
same,"Plant response rating, Crabgrass, Large",[7]; [13],75
same,"Plant response rating, Crabgrass, Large",[7]; [14],0
same,"Plant response rating, Crabgrass, Large",[7]; [15],0
same,"Plant response rating, Lambsquarters",[8]; [12],100
same,"Plant response rating, Lambsquarters",[8]; [13],100
same,"Plant response rating, Lambsquarters",[8]; [14],0
same,"Plant response rating, Lambsquarters",[8]; [15],0
same,"Plant response rating, Nightshade",[9]; [12],98
same,"Plant response rating, Nightshade",[9]; [13],98
same,"Plant response rating, Nightshade",[9]; [14],0
same,"Plant response rating, Nightshade",[9]; [15],50
same,"Plant response rating, Kochia",kochia (Kochia scoparia); [16],90
same,"Plant response rating, Kochia",kochia (Kochia scoparia); [17],35
same,"Plant response rating, Kochia",kochia (Kochia scoparia); [18],100
same,"Plant response rating, Kochia",kochia (Kochia scoparia); [19],100
same,"Plant response rating, Kochia",kochia (Kochia scoparia); [20],80
same,"Plant response rating, Kochia",kochia (Kochia scoparia); [21],80
same,"Plant response rating, Kochia",kochia (Kochia scoparia); [22],0
same,"Plant response rating, Kochia",kochia (Kochia scoparia); [23],0
same,"Plant response rating, Field Bindweed",[10]; [16],75
same,"Plant response rating, Field Bindweed",[10]; [17],50
same,"Plant response rating, Field Bindweed",[10]; [18],95
same,"Plant response rating, Field Bindweed",[10]; [19],70
same,"Plant response rating, Field Bindweed",[10]; [20],75
same,"Plant response rating, Field Bindweed",[10]; [21],80
same,"Plant response rating, Field Bindweed",[10]; [22],20
same,"Plant response rating, Field Bindweed",[10]; [23],20
same,"Plant response rating, Foxtail, Giant",[11]; [12],35
same,"Plant response rating, Foxtail, Giant",[11]; [13],75
same,"Plant response rating, Foxtail, Giant",[11]; [14],0
same,"Plant response rating, Foxtail, Giant",[11]; [15],0
